Results published in patent publication US20240299352A1, “COMBINATION THERAPIES WITH SETD2 INHIBITORS” (Epizyme, Inc., priority 2021, published 2024).

Tests used:
[1] = test system: diffuse large B-cell lymphoma (DLBCL) cell lines; experiment: Pre-treatment model combination study with Cpd. No. 15 (7 days pre-treatment, then combination; Table G), CellTiter-Glo viability, Loewe Volume; conditions: 7 days pre-treatment with Cpd. No. 15, then combination
[2] = test system: diffuse large B-cell lymphoma (DLBCL) cell lines; experiment: Co-treatment combination study with Cpd. No. 15, further cell lines (Table F), CellTiter-Glo viability, Loewe Volume; format: cell-based; conditions: for Combination effect with Cpd. No. 15 (Loewe Volume class), Ri1: co-treatment with Cpd. No. 15, cell line Ri1 (Cat. No. 96090512-1VL); for Combination effect with Cpd. No. 15 (Loewe Volume class), TMD8: co-treatment with Cpd. No. 15, cell line TMD8 (Cat. No. M-097); for Combination effect with Cpd. No. 15 (Loewe Volume class), WILL1: co-treatment with Cpd. No. 15, cell line WILL1 (Cat. No. ACC 651)
Description: Mantle cell lymphoma (MCL) and diffuse large B-cell lymphoma (DLBCL) cell line cultures in log-linear growth rate were treated with combinations of Cpd. No. 15 and combination partners according to a co-treatment model. […] No. 15 and the combination partner. […] Each combination was tested in quadruplicate wells. The final concentration of DMSO (vehicle) in the assay was 0.1% v/v. Fifty microliters of cell line suspension were directly dispensed to the assay-ready plates with an automated multichannel dispenser on to 384-well assay-ready plates. Assay plates were incubated for seven days unless otherwise indicated in a humidified atmosphere of 5% CO2 at 37° C. Quantification of the effect of single agents or combinations on cell viability was performed through measurement of cellular adenosine triphosphate (ATP) using a CellTiter-Glo® (Promega, Madison, WI) Luminescent Cell Viability Assay. Luminescence was detected using a SpectraMax M5 microplate reader (Molecular Devices, Sunnyvale, CA). Concentration response plots were generated in GraphPad Prism version 7.0 for Windows, GraphPad Software, (La Jolla, California) and curves fitted to a four-parameter logistic model with variable slope. Percent of inhibition was calculated at each treatment concentration.

TOLEDO = experiment: Co-treatment combination study with Cpd. No. 15, CellTiter-Glo viability, Loewe Volume; format: cell-based; conditions: in combination with Cpd. No. 15, seven days, DLBCL cell line TOLEDO
Summary of the method: (§1)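 Luminescent ATP measurement (CellTiter-Glo) quantified viability of lymphoma lines exposed simultaneously to Cpd. No. 15 and a partner agent for seven days at 37° C. Wells were run in quadruplicate with 0.1% v/v DMSO vehicle.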

Pfeiffer = experiment: as above; format: cell-based; conditions: in combination with Cpd. No. 15, seven days, DLBCL cell line Pfeiffer
Summary of the method: as §1

WILL2 = experiment: as above; format: cell-based; conditions: in combination with Cpd. No. 15, seven days, DLBCL cell line WILL2
Summary of the method: as §1

SUDHL6 = experiment: as above; format: cell-based; conditions: in combination with Cpd. No. 15, seven days, DLBCL cell line SUDHL6
Summary of the method: as §1

HT = experiment: as above; format: cell-based; conditions: in combination with Cpd. No. 15, seven days, DLBCL cell line HT
Summary of the method: as §1

JEKO1 = experiment: as above; format: cell-based; conditions: in combination with Cpd. No. 15, seven days, mantle cell lymphoma cell line JEKO1 (CRL-3006)
Summary of the method: as §1

SUDHL4 = experiment: as above; format: cell-based; conditions: in combination with Cpd. No. 15, seven days, DLBCL cell line SUDHL4
Summary of the method: as §1

WSUNHL = experiment: as above; format: cell-based; conditions: in combination with Cpd. No. 15, seven days, DLBCL cell line WSUNHL
Summary of the method: as §1

DB = experiment: as above; format: cell-based; conditions: in combination with Cpd. No. 15, seven days, DLBCL cell line DB
Summary of the method: as §1

WSUDLCL2 = experiment: as above; format: cell-based; conditions: in combination with Cpd. No. 15, seven days, DLBCL cell line WSUDLCL2
Summary of the method: as §1

DOHH2 = experiment: as above; format: cell-based; conditions: in combination with Cpd. No. 15, seven days, DLBCL cell line DOHH2
Summary of the method: as §1

SUDHL10 = experiment: as above; format: cell-based; conditions: in combination with Cpd. No. 15; 5-Day Cotreatment; DLBCL cell line SUDHL10
MAVER1 = experiment: as above; format: cell-based; conditions: in combination with Cpd. No. 15, seven days, mantle cell lymphoma cell line MAVER1 (CRL-3008)
Summary of the method: as §1

KARPAS422 = experiment: as above; format: cell-based; conditions: in combination with Cpd. No. 15, seven days, DLBCL cell line KARPAS422
Summary of the method: as §1

SUDHL5 = experiment: as above; format: cell-based; conditions: in combination with Cpd. No. 15, seven days, DLBCL cell line SUDHL5
Summary of the method: as §1

SUDHL2 = experiment: as above; format: cell-based; conditions: in combination with Cpd. No. 15, seven days, DLBCL cell line SUDHL2
Summary of the method: as §1

SUDHL8 = experiment: as above; format: cell-based; conditions: in combination with Cpd. No. 15, seven days, DLBCL cell line SUDHL8
Summary of the method: as §1

RL = experiment: as above; format: cell-based; conditions: in combination with Cpd. No. 15; 6-Day Cotreatment; DLBCL cell line RL
Z138 = experiment: as above; format: cell-based; conditions: in combination with Cpd. No. 15, seven days, mantle cell lymphoma cell line Z138 (CRL-3001)
Summary of the method: as §1

MINO = experiment: as above; format: cell-based; conditions: in combination with Cpd. No. 15, seven days, mantle cell lymphoma cell line MINO (CRL-3000)
Summary of the method: as §1

JVM2 = experiment: as above; format: cell-based; conditions: in combination with Cpd. No. 15, seven days, mantle cell lymphoma cell line JVM2 (CRL-3002)
Summary of the method: as §1

REC1 = experiment: as above; format: cell-based; conditions: in combination with Cpd. No. 15, seven days, mantle cell lymphoma cell line REC1 (CRL-3004)
Summary of the method: as §1

GRANTA519 = experiment: as above; format: cell-based; conditions: in combination with Cpd. No. 15, seven days, mantle cell lymphoma cell line GRANTA519 (ACC 342)
Summary of the method: as §1

## CC#CC(=O)N1CCC[C@H]1c1nc(-c2ccc(C(=O)Nc3ccccn3)cc2)c2c(N)nccn12 [Acalabrutinib, acalabrutinib]
[1]; cell line Farage (Cat. No. CRL-2630)
  Combination effect with Cpd. No. 15 (Loewe Volume class), Farage: Synergy (VLoewe>1: synergy)
[1]; cell line HT (Cat. No. CRL-2631)
  Combination effect with Cpd. No. 15 (Loewe Volume class), HT: No Effect
[1]; cell line OCILY7 (Cat. No. ACC 688)
  Combination effect with Cpd. No. 15 (Loewe Volume class), OCILY7: No Effect
[1]; cell line SUDHL4 (Cat. No. ACC 495)
  Combination effect with Cpd. No. 15 (Loewe Volume class), SUDHL4: No Effect
[1]; cell line WILL2 (Cat. No. ACC 652)
  Combination effect with Cpd. No. 15 (Loewe Volume class), WILL2: No Effect
[2]
  Combination effect with Cpd. No. 15 (Loewe Volume class), Ri1: Synergy (VLoewe>1: synergy)
  Combination effect with Cpd. No. 15 (Loewe Volume class), TMD8: Synergy (VLoewe>1: synergy)
  Combination effect with Cpd. No. 15 (Loewe Volume class), WILL1: No Effect
TOLEDO
  Combination effect (Loewe Volume) TOLEDO: No Effect
Pfeiffer
  Combination effect (Loewe Volume) Pfeiffer: No Effect
WILL2
  Combination effect (Loewe Volume) WILL2: Additivity (between 1 and −1: additivity)
SUDHL6
  Combination effect (Loewe Volume) SUDHL6: Synergy (VLoewe>1: synergy)
HT
  Combination effect (Loewe Volume) HT: No Effect
JEKO1
  Combination effect (Loewe Volume) JEKO1: Synergy (VLoewe>1: synergy)
SUDHL4
  Combination effect (Loewe Volume) SUDHL4: No Effect
WSUNHL
  Combination effect (Loewe Volume) WSUNHL: No Effect
DB
  Combination effect (Loewe Volume) DB: No Effect
WSUDLCL2
  Combination effect (Loewe Volume) WSUDLCL2: Additivity (between 1 and −1: additivity)
DOHH2
  Combination effect (Loewe Volume) DOHH2: No Effect
SUDHL10
  Combination effect (Loewe Volume) SUDHL10: No Effect
MAVER1
  Combination effect (Loewe Volume) MAVER1: Synergy (VLoewe>1: synergy)
KARPAS422
  Combination effect (Loewe Volume) KARPAS422: No Effect
SUDHL5
  Combination effect (Loewe Volume) SUDHL5: No Effect
SUDHL2
  Combination effect (Loewe Volume) SUDHL2: No Effect
SUDHL8
  Combination effect (Loewe Volume) SUDHL8: No Effect
RL
  Combination effect (Loewe Volume) RL: No Effect
Z138
  Combination effect (Loewe Volume) Z138: No Effect
MINO
  Combination effect (Loewe Volume) MINO: Synergy (VLoewe>1: synergy)
JVM2
  Combination effect (Loewe Volume) JVM2: Additivity (between 1 and −1: additivity)
REC1
  Combination effect (Loewe Volume) REC1: Additivity (between 1 and −1: additivity)
GRANTA519
  Combination effect (Loewe Volume) GRANTA519: Additivity (between 1 and −1: additivity)

## COc1cccc2c1C(=O)c1c(O)c3c(c(O)c1C2=O)C[C@@](O)(C(=O)CO)C[C@@H]3O[C@H]1C[C@H](N)[C@H](O)[C@H](C)O1 [Doxorubicin, doxorubicin]
[2]
  Combination effect with Cpd. No. 15 (Loewe Volume class), Ri1: Synergy (VLoewe>1: synergy)
  Combination effect with Cpd. No. 15 (Loewe Volume class), TMD8: Additivity (between 1 and −1: additivity)
  Combination effect with Cpd. No. 15 (Loewe Volume class), WILL1: Additivity (between 1 and −1: additivity)
TOLEDO
  Combination effect (Loewe Volume) TOLEDO: Synergy (VLoewe>1: synergy)
Pfeiffer
  Combination effect (Loewe Volume) Pfeiffer: Additivity (between 1 and −1: additivity)
WILL2
  Combination effect (Loewe Volume) WILL2: Additivity (between 1 and −1: additivity)
SUDHL6
  Combination effect (Loewe Volume) SUDHL6: Synergy (VLoewe>1: synergy)
HT
  Combination effect (Loewe Volume) HT: Additivity (between 1 and −1: additivity)
JEKO1
  Combination effect (Loewe Volume) JEKO1: Additivity (between 1 and −1: additivity)
SUDHL4
  Combination effect (Loewe Volume) SUDHL4: Additivity (between 1 and −1: additivity)
WSUNHL
  Combination effect (Loewe Volume) WSUNHL: Additivity (between 1 and −1: additivity)
DB
  Combination effect (Loewe Volume) DB: Additivity (between 1 and −1: additivity)
WSUDLCL2
  Combination effect (Loewe Volume) WSUDLCL2: Additivity (between 1 and −1: additivity)
DOHH2
  Combination effect (Loewe Volume) DOHH2: Additivity (between 1 and −1: additivity)
SUDHL10
  Combination effect (Loewe Volume) SUDHL10: Additivity (between 1 and −1: additivity)
MAVER1
  Combination effect (Loewe Volume) MAVER1: Additivity (between 1 and −1: additivity)
KARPAS422
  Combination effect (Loewe Volume) KARPAS422: Additivity (between 1 and −1: additivity)
SUDHL5
  Combination effect (Loewe Volume) SUDHL5: Additivity (between 1 and −1: additivity)
SUDHL2
  Combination effect (Loewe Volume) SUDHL2: Additivity (between 1 and −1: additivity)
SUDHL8
  Combination effect (Loewe Volume) SUDHL8: Additivity (between 1 and −1: additivity)
RL
  Combination effect (Loewe Volume) RL: Additivity (between 1 and −1: additivity)
Z138
  Combination effect (Loewe Volume) Z138: Additivity (between 1 and −1: additivity)
MINO
  Combination effect (Loewe Volume) MINO: Additivity (between 1 and −1: additivity)
JVM2
  Combination effect (Loewe Volume) JVM2: Additivity (between 1 and −1: additivity)
REC1
  Combination effect (Loewe Volume) REC1: Additivity (between 1 and −1: additivity)
GRANTA519
  Combination effect (Loewe Volume) GRANTA519: Additivity (between 1 and −1: additivity)
